# Bridges are numbered along the chain shown (N, C = ends). Where no end group is shown, it is not given here.
# How the values were obtained:
# monocytes = assay: Leishmanicidal activity of monocytes (cell-mediated Th1 response); assay type: cell-based, dog; conditions: for immune response after vaccination (summary of Table I): dogs, 1 month after the 3rd injection, with adjuvant QA21
# Excerpt: (§1) This evidence was gathered using two techniques: • Assaying the leishmanicidal activity of the monocytes according to the method described previously (Patent FRO1076060); • Detection of dog IgG2, specific to the cyclized peptide E34P and the carboxyterminal group of PSA.
# (§2) Biological analysis consisted of: • Serology of specific IgG2 of cyclized peptide E34P and of the carboxyterminal group of PSA; • Leishmaniasis serology: quantitative immunofluorescence of the total IgG (sign of infection); • Leishmanicidal activity of the monocytes (cell-mediated response).
# [1] = test system: Leishmania promastigotes and amastigotes; assay: Inhibition of parasitic growth by serums from vaccinated dogs; assay type: cell-based; conditions: in vitro
# Experimental: Inhibition of the growth of promastigotes and amastigotes in the presence of IgG2 (Patent FR0209506).
# The role of the IgG2 on the viability and growth of Leishmania promastigotes and amastigotes was analyzed with immunoserums from dogs vaccinated with the mixture including the cyclized peptide E34P and the serums from the placebo dogs.
# Leishmania = assay: Infection test in vaccinated dogs, parasitology from marrow punctures; assay type: in vivo; conditions: four months after the infection test
# Experimental: The infection test consisted of intravenously injecting 10^8 complement-treated promastigotes in metacyclic phase from a healthy dog and 5×10^8 peritoneous macrophages from a healthy dog, infected in vitro by amastigotes.
# The promastigotes and the infected macrophages were diluted in sterile physiological serum to a final volume of 1.5 mL. This mixture was made up just prior to injection.
# A parasitological examination was carried out from samples taken directly from the dog.
# A smear from the bone-marrow puncture was made on a slide. This smear, once fixed in methanol was May Grümwald Giemsa stained and studied under an immersion microscope (×1000).
# Some bone-marrow samples were cultivated in a biphasic culture medium NNN (Novy and Mac Neal, 1904, 4. Infec. Dis., 1:1-30) of which RPMI 1640 added to 20% of decomplemented fetal veal serum made up the liquid phase. Random subculturing was carried out every 4 to 6 days. The cultures were regularly studied by photon microscope (×400) for 20 minutes.
# The parasitemias were quantified as follows: • +/−: elongated, immobile, refringent forms • +: 1 to 5 mobile/field promastigote forms • ++: >5 mobile/field promastigote forms • +++: cultivated to confluence.
# It was necessary to add to these analyses the study of Leishmania by direct observation under microscope and culture in NNN medium from the bone-marrow after the infection test. […]
# cyclized peptide E34P = assay: ELISA serology of dog IgG2 vs. cyclised E34P after vaccination; assay type: in vivo; conditions: non-cyclization at Cys9/Cys15
# Experimental: as §1
# This detection was carried out by the ELISA method according to the microtitration technique of Kweider et al. (J. Immunol, 1987, 138, 299) by using an anti IgG2 conjugate. For this method, the peptide is biotinylated before coating onto microplates. This bonding to […] biotin-type molecules has the effect of rendering the cyclized peptide E34P more antigenic. We also use the recombinant protein coding for the carboxyterminal group of the PSA as antigen.
# Biological analyses were carried out: • Before any injection • 1 month after the 3rd injection.
# as §2
Substance,immune response after vaccination (summary of Table I) (monocytes),neutralizing / anti-parasitic role of the induced IgG2 [1],protection after the infection test (summary of Table II) (Leishmania),IgG2 synthesis (cyclized peptide E34P),Th1 stimulation (monocytes; peptide used alone or in combination with other peptides)
EDEHKGKYCRLGNDCRTTEPTTTATPRGTPTPAP (EDEHKGKYCRLGNDCRTTEPTTTATPRGTPTPAP; disulfide 9-15) [Group E34P],only partial response,induces IgG2 immunoglobulins capable of neutralizing the proliferation,insufficient to induce an effective response,–,–
"NON-cyclized peptide E34P: the non-cyclized form of peptide E34P (SEQ ID No. 1 without Cys9/Cys15 disulfide bridge) (EDEHKGKYCRLGNDCRTTEPTTTATPRGTPTPAP; non-cyclized, no disulfide; Fully-synthetic sequence)",less effective than the cyclized E34P,–,–,only induces slight IgG2 synthesis,only induces very partial Th1 stimulation

# — patent US20110104064A1, “CYCLIZED NON-NATIVE SYNTHETIC PEPTIDE AND COMPLEX OF PEPTIDES COMPRISING SAID CYCLIZED PEPTIDE, INTENDED TO INDUCE AND TO CH[…] PREVENTION OR TREATMENT OF CONDITIONS IN MAMMALS” (priority 2008, published 2011)
